Measured values published in US9499502B2, “5-substituted iminothiazines and their mono- and dioxides as BACE inhibitors, compositions, and their use” (Merck Sharp & Dohme Corp., priority 2011, dated 2016).
Like-named read-outs stand apart in the source and are kept apart here.

Tests used:
[1] = biological target: soluble human BACE1 catalytic domain (Homo sapiens (Human), UniProt P56817); test: BACE1 HTRF FRET Assay; conditions: for inhibition at 10 µM: read-out: BACE1 inhibition, % Inh. at 10 μM, at 10 μM
[2] = biological target: purified human autoBACE-2 (Homo sapiens (Human), UniProt Q9Y5Z0); test: BACE-2 Assay (BACE-HTRF assay); type: biochemical; conditions: for inhibition at 10 µM: read-out: inhibition of BACE2 at 10 μM
Procedure: Inhibitor IC50s at purified human autoBACE-2 are determined in a time-resolved endpoint proteolysis assay that measures hydrolysis of the QSY7-[…]-Eu-amide FRET peptide substrate (BACE-HTRF assay). […] DMSO is present at 5% final concentration in the assay. Following laser excitation of sample wells at 320 nm, the fluorescence signal at 620 nm is collected for 400 ms following a 50 μs delay on a RUBYstar HTRF plate reader (BMG Labtechnologies). Raw RFU data is normalized to maximum (1.0 nM BACE/DMSO) and minimum (no enzyme/DMSO) RFU values. […] The Ki values are calculated from the IC50 using the Cheng-Prusoff equation.

[3] = read-out: BACE1 Ki, Ki calculated from IC50 using the Cheng-Prusoff equation
[4] = Ki calculated from IC50 using the Cheng-Prusoff equation, read-out: BACE2 Ki

Sequence of purified human autoBACE-2 (Q9Y5Z0 63-473): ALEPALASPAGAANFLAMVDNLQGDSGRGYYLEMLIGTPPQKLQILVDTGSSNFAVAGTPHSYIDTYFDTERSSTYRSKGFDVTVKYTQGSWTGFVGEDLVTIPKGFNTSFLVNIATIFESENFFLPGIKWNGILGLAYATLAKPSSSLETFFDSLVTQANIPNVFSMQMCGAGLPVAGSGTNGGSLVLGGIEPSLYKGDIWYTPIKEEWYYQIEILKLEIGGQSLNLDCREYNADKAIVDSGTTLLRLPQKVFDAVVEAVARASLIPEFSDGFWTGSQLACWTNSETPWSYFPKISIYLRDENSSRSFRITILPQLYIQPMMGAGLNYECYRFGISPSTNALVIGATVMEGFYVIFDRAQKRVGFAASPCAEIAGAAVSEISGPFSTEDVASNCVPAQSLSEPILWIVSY
Sequence of soluble human BACE1 catalytic domain (P56817 75-416): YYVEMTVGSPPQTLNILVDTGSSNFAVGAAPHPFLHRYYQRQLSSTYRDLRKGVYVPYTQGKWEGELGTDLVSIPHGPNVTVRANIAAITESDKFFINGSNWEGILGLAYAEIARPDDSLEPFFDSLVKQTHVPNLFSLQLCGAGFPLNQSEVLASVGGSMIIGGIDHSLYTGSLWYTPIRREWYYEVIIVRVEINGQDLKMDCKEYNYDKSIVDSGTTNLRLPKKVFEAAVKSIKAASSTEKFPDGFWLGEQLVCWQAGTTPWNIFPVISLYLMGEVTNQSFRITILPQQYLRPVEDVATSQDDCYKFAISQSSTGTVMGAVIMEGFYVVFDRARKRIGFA

Ki [1, 3] [nM]	Ki [2, 4] [nM]	Compound	also measured
44	11	COc1ccc(C(=O)Nc2ccc(F)c([C@]3(C)CS(=O)(=O)C(C)(C)C(=N)N3)c2F)nc1 [Example 9y]	–
–	–	CC1(C)C(=N)N[C@](C)(c2cc(N)ccc2F)CS1(=O)=O [Example 2-2]	Ki ([1]; read-out: BACE1 inhibition, Ki): 6100 nM; Ki [2]: 500 to 10000 nM
–	1400	CC1(C)C(=N)N[C@](C)(c2sc(N3Cc4cc(F)ccc4C3=O)cc2Cl)CS1(=O)=O [Example 35a]	Ki ([1]; read-out: BACE1 Ki): 6080 nM
181	101 to 700	C[C@@]1(c2ccccn2)C(=N)N[C@](C)(c2cc(NC(=O)c3ccc(C(F)(F)F)cn3)ccc2F)CS1(=O)=O [Example 9cz-b]	–
42	5	CC1(C)C(=N)N[C@](C)(c2cc(NC(=O)c3cocn3)cc(F)c2F)CS1(=O)=O [Example 9bu]	–
–	500 to 10000	CC1(C)C(N)=N[C@](C)(c2cc(Br)ccc2F)CS1(=O)=O [Example 3-3]	inhibition at 10 µM [1]: 56%
–	145	C[C@@]1(c2ccc(F)cc2F)CS(=O)(=O)[C@@](C)(c2cccc(Br)c2)C(=N)N1 [Example 32g-a]	Ki ([1]; read-out: BACE1 Ki): 381 nM
60	14	COCC(=O)Nc1ccc(F)c([C@]2(C)CS(=O)(=O)C(C)(C)C(=N)N2)c1 [Example 9at]	–
304	11 to 100	C[C@@]1(C2CCC2)C(=N)N[C@](C)(c2cc(NC(=O)c3ccc(F)cn3)ccc2F)CS1(=O)=O [Example 9dv-b]	–
33	9	CCC1C(=N)N[C@](C)(c2cc(NC(=O)c3ccc(F)cn3)ccc2F)CS1(=O)=O (some centres unmarked) [Example 9ca]	–
102	≤ 20	CC1(C)C(=N)N[C@](C)(c2sc(-c3nnc(-c4ccc(F)cc4)o3)cc2Cl)CS1(=O)=O [Example 27bb]	–
282	101 to 700	COc1ccc(C(=O)Nc2ccc(F)c([C@]3(C)CS(=O)(=O)[C@](C)(c4ccccn4)C(=N)N3)c2)nc1 [Example 9cx-b]	–
6	3	CC1(C)C(=N)N[C@](C)(c2cc(NC(=O)c3ccc(C#N)cn3)cc(F)c2F)CS1(=O)=O [Example 9bg]	–
209	101 to 700	COc1cnc(C(=O)Nc2ccc(F)c([C@]3(C)CS(=O)(=O)[C@](C)(c4ccccn4)C(=N)N3)c2)cn1 [Example 9cy-b]	–
35.9	≤ 20	CC1(C)C(=N)N[C@](C)(c2sc(-c3nnc(-c4ccc(Cl)cc4)o3)cc2Cl)CS1(=O)=O [Example 27bc]	–
–	≤ 20	CC1(C)C(=N)N[C@](C)(c2sc(-c3nnc(-c4ccc(Cl)cc4)o3)cc2F)CS1(=O)=O [Example 27bf]	Ki ([1]; read-out: BACE1 Ki): 30.9 nM
–	9	COc1cccc(-c2cc(F)c([C@]3(C)CS(=O)(=O)[C@@](C)(CC(F)(F)F)C(=N)N3)s2)c1 [Example 27bl-a]	Ki ([1]; read-out: BACE1 Ki): 223 nM
7.9	41	CC1(C)C(=N)N[C@](C)(c2c(F)c(F)cc(NC(=O)c3ccc(C(F)(F)F)cn3)c2F)CS1(=O)=O [Example 9ad]	–
387	314	CC1(C)C(=N)N[C@](C)(c2sc(-c3cncnc3)cc2Cl)CS1(=O)=O [Example 24]	–
–	≤ 20	CC1(C)C(=N)N[C@](C)(c2sc(-c3nnc(-c4ccc(F)cc4)o3)cc2F)CS1(=O)=O [Example 27bg]	Ki ([1]; read-out: BACE1 Ki): 79.3 nM
–	–	C[C@@]1(C2CC2)C(=N)N[C@](C)(c2cc([N+](=O)[O-])ccc2F)CS1(=O)=O [Entry 30]	inhibition at 10 µM [1]: 30%; inhibition at 10 µM [2]: 29 to 47%
45.4	69	COc1cnc(C(=O)Nc2cc(F)c(F)c([C@]3(C)CS(=O)(=O)C(C)(C)C(=N)N3)c2F)cn1 [Example 9ae]	–
–	≤ 10	CC1(C)C(=N)N[C@](C)(c2sc(-c3cccc(-n4nccn4)c3)cc2Cl)CS1(=O)=O [Example 27u]	Ki ([1]; read-out: BACE1 Ki): 49.2 nM
–	–	C[C@@]1(C2CCC2)C(=N)N[C@](C)(c2cc(N)ccc2F)CS1(=O)=O [Entry 40]	inhibition at 10 µM [1]: 20%; inhibition at 10 µM [2]: 29 to 47%

Compound	Ki [1, 3] [nM]	Ki [2, 4] [nM]	also measured
CC1(C)C(=N)N[C@](C)(c2cc(NC(=N)c3ncc(F)cc3F)ccc2F)CS1(=O)=O [Example 9ef]	989	218	–
